Assay results from patent publication US5149365A, “Diorganotin compounds, and agents which have a bactericidal and fungicidal action and contain these compounds” (Schering Aktiengesellschaft, priority 1988, dated 1992).
Where a name gives a salt, the structure may show the parent alone.

Assays:
Orfes = assay: EC50 in Orfes (DIN 38412, Part 15); assay type: in vivo
From the text: *Determination in accordance with DIN 38412, Part 15

Bacillus subtilis = assay: Agar diffusion test, Bacillus subtilis; assay type: cell-based; conditions: 0: no inhibition action
Experimental: (§1) DST agar was inoculated with 1 drop of a Muller-Hinton broth of the test organisms, diluted 1 : 10. After a prediffusion period of 2 hours at 22° C., the paper filters which had been soaked with solutions of active substance of various concentrations were placed on the agar. The inhibition zones (distance of the cloudy area from the edge of the paper filter in mm) were determined after an incubation time of 24 hours.

Daphnia = assay: EC50 in Daphnia (DIN 38412, Part 12); assay type: in vivo
From the text: **Determination in accordance with DIN 38412, Part 12.

Staphilococcus aureaus = assay: Agar diffusion test, Staphilococcus aureaus; assay type: cell-based; conditions: 0: no inhibition action
Experimental: as §1

Coniophora puteana = assay: Wood block test against Coniophora puteana after leaching treatment (DIN 52 176, DIN EN 84); conditions: lower: highest amount with attack (weight loss>3%); higher: lowest amount without attack; 16 weeks, 22° C.
From the text: To compare the fungicidal action against Basidiomycetes, small blocks made of pine sapwood (5 cm×2.5 cm×1.5 cm, direction of fiber: 5 cm) were soaked with solutions of graduated concentrations of the active substance DBT-HDO (cf. Example 1) in acetone, based on DIN 52 176.
For comparison reasons, the starting materials di-n-butyltin dichloride and the K salt of N-cyclohexyl-N'-hydroxydiazenium oxide were included in the investigations.
The soaked blocks were kept for 4 weeks in an environmentally-controlled chamber at an air temperature of 20° C. and a relative atmospheric humidity of 65%. They were then subjected to a leaching procedure in accordance with DIN EN 84. […] The effect of the fungi on the individual blocks was determined by calculating the weight losses (based on the dry weights). The limits which were determined in this way and which are expressed by two figures, the lower of which being the highest amount of protective agent (in kg/m^3 of wood) at which an attack still took place (weight loss>3%), and the higher denoting the lowest amount from which an attack no longer took place, are listed in Table 3.

Cladosporum herbarum = assay: Filter disk test, Cladosporum herbarum; assay type: cell-based; conditions: 3 weeks, +30° C.
Experimental: (§2) The inhibition action against fungi, of the products according to the invention, was tested using the "filter disk test" (cf. Table 2). For this purpose, paper filter disks (.phi. 5.5 cm) were soaked in ethanolic solutions containing various amounts of active substance. After the filters had dried under room conditions, they were placed on Petri dishes containing plate-count agar which had been inoculated with a spore suspension. The nutrient medium used was biomalt agar 8° Bg, and the dishes were incubated for 3 weeks at +30° C. Thereafter, the sizes of the inhibition zones (distance of the fungal growth from the edge of the filter, in mm) around the samples were determined.

[1] = Weight loss (release) on storage, 6 days at 65° C.; assay type: physicochemical; conditions: for Weight loss: 6 days 65° C.
Experimental: As shown by the comparison above, the amount released into the environment during a storage period of 6 days at 65° C. of, for example, TBT-HDO, is nearly six times higher than in the case of DBT-HDO according to the invention.

Proteus vulgaris = assay: Agar diffusion test, Proteus vulgaris; assay type: cell-based; conditions: 0: no inhibition action
Experimental: as §1

Poria monticola = assay: Filter disk test, Poria monticola; assay type: cell-based; conditions: 3 weeks, +30° C.
Experimental: as §2

Paecilomyces varioti = assay: Filter disk test, Paecilomyces varioti; assay type: cell-based; conditions: 3 weeks, +30° C.
Experimental: as §2

Escherichia coli = assay: Agar diffusion test, Escherichia coli; assay type: cell-based; conditions: 0: no inhibition action
Experimental: as §1

Lentinus lepideus = assay: Filter disk test, Lentinus lepideus; assay type: cell-based; conditions: 3 weeks, +30° C.
Experimental: as §2

rats = assay: LD50 oral (rats); assay type: in vivo
bacteria and fungi = conditions: prior art; cited from earlier work
[2] = 0.1% active substance in soaking solution
[3] = 0.3% active substance in soaking solution
[4] = 0.5% active substance in soaking solution

CCC[CH2][Sn]([CH2]CCC)([O]N(N=O)C1CCCCC1)[O]N(N=O)C1CCCCC1 [DBT-HDO, bis(N-cyclohexyldiazeniumdioxy)di-n-butyltin]
EC50 in Orfes (Orfes): 0.18 mg/l of water
inhibition zone (Bacillus subtilis; [2]): 6 mm
inhibition zone (Bacillus subtilis; [3]): 11 mm
inhibition zone (Bacillus subtilis; [4]): 15 mm
EC50 in Daphnia (Daphnia): 4.9 mg/l of water
inhibition zone (Staphilococcus aureaus; [2]): 8 mm
inhibition zone (Staphilococcus aureaus; [3]): 10 mm
inhibition zone (Staphilococcus aureaus; [4]): 10 mm
Limits against Coniophora puteana after leaching treatment (Coniophora puteana): 0.51-0.88 kg of product per m^3 of wood
inhibition zone (IZ) (Cladosporum herbarum; 0.5% content of the solution): 3-5 mm
inhibition zone (IZ) (Cladosporum herbarum; 1% content of the solution): 5-6 mm
inhibition zone (IZ) (Cladosporum herbarum; 2% content of the solution): 8-10 mm
Weight loss [1]: 2.3%
inhibition zone (Proteus vulgaris; [2]): 12 mm
inhibition zone (Proteus vulgaris; [3]): 13 mm
inhibition zone (Proteus vulgaris; [4]): 12 mm
inhibition zone (IZ) (Poria monticola; 0.5% content of the solution): 6-8 mm
inhibition zone (IZ) (Poria monticola; 1% content of the solution): 12-12 mm
inhibition zone (IZ) (Poria monticola; 2% content of the solution): 12-15 mm
inhibition zone (IZ) (Paecilomyces varioti; 0.5% content of the solution): 6-8 mm
inhibition zone (IZ) (Paecilomyces varioti; 1% content of the solution): 8-10 mm
inhibition zone (IZ) (Paecilomyces varioti; 2% content of the solution): 10-12 mm
inhibition zone (Escherichia coli; [2]): 0 mm
inhibition zone (Escherichia coli; [3]): 2 mm
inhibition zone (Escherichia coli; [4]): 3 mm
inhibition zone (IZ) (Lentinus lepideus; 0.5% content of the solution): > 15 mm
inhibition zone (IZ) (Lentinus lepideus; 1% content of the solution): > 15 mm
inhibition zone (IZ) (Lentinus lepideus; 2% content of the solution): > 15 mm

CCCCCCC[CH2][Sn]([CH2]CCCCCCC)([O]N(N=O)C1CCCCC1)[O]N(N=O)C1CCCCC1 [DOT-HDO, bis(N-cyclohexyldiazeniumdioxy)di-n-octyltin]
inhibition zone (IZ) (Cladosporum herbarum; 0.5% content of the solution): 10-12 mm
inhibition zone (IZ) (Cladosporum herbarum; 1% content of the solution): 12-15 mm
inhibition zone (IZ) (Cladosporum herbarum; 2% content of the solution): > 15 mm
inhibition zone (IZ) (Poria monticola; 0.5% content of the solution): 5-6 mm
inhibition zone (IZ) (Poria monticola; 1% content of the solution): 8-10 mm
inhibition zone (IZ) (Poria monticola; 2% content of the solution): 8-10 mm
inhibition zone (IZ) (Paecilomyces varioti; 0.5% content of the solution): 5-6 mm
inhibition zone (IZ) (Paecilomyces varioti; 1% content of the solution): 8-10 mm
inhibition zone (IZ) (Paecilomyces varioti; 2% content of the solution): 10-12 mm
inhibition zone (IZ) (Lentinus lepideus; 0.5% content of the solution): > 15 mm
inhibition zone (IZ) (Lentinus lepideus; 1% content of the solution): > 15 mm
inhibition zone (IZ) (Lentinus lepideus; 2% content of the solution): > 15 mm

CCCC[CH2][Sn]([CH2]CCCC)([O]N(N=O)C1CCCCC1)[O]N(N=O)C1CCCCC1 [DPT-HDO, bis(N-cyclohexyldiazeniumdioxy)di-n-pentyltin]
inhibition zone (IZ) (Cladosporum herbarum; 0.5% content of the solution): 2-3 mm
inhibition zone (IZ) (Cladosporum herbarum; 1% content of the solution): 5-7 mm
inhibition zone (IZ) (Cladosporum herbarum; 2% content of the solution): 6-8 mm
inhibition zone (IZ) (Poria monticola; 0.5% content of the solution): 6-8 mm
inhibition zone (IZ) (Poria monticola; 1% content of the solution): 8-10 mm
inhibition zone (IZ) (Poria monticola; 2% content of the solution): 10-12 mm
inhibition zone (IZ) (Paecilomyces varioti; 0.5% content of the solution): 6-8 mm
inhibition zone (IZ) (Paecilomyces varioti; 1% content of the solution): 8-10 mm
inhibition zone (IZ) (Paecilomyces varioti; 2% content of the solution): 10-12 mm
inhibition zone (IZ) (Lentinus lepideus; 0.5% content of the solution): > 15 mm
inhibition zone (IZ) (Lentinus lepideus; 1% content of the solution): > 15 mm
inhibition zone (IZ) (Lentinus lepideus; 2% content of the solution): > 15 mm

CCC[CH2][Sn]([Cl])([Cl])[CH2]CCC [Di-n-butyltin dichloride]
Growth (Lentinus lepideus; 1% content of the solution): + +

[O-][N+](=NO)C1CCCCC1 [K-HDO, potassium salt of N-cyclohexyl-N'-hydroxydiazenium oxide]
zone of inhibition at 0.1 % strength (Bacillus subtilis; Bacillus subtilis, 24 h, 0.1% active substance in soaking solution): 4 mm
zone of inhibition at 0.3 % strength (Bacillus subtilis; Bacillus subtilis, 24 h, 0.3% active substance in soaking solution): 4 mm
zone of inhibition at 0.5 % strength (Bacillus subtilis; Bacillus subtilis, 24 h, 0.5% active substance in soaking solution): 9 mm
zone of inhibition at 0.1 % strength (Staphilococcus aureaus; 24 h, 0.1% active substance in soaking solution): 8 mm
zone of inhibition at 0.3 % strength (Staphilococcus aureaus; 24 h, 0.3% active substance in soaking solution): 14 mm
zone of inhibition at 0.5 % strength (Staphilococcus aureaus; 24 h, 0.5% active substance in soaking solution): 19 mm
Limits against Coniophora puteana after leaching treatment (Coniophora puteana): 1.8-3.4 kg of product per m^3 of wood
zone of inhibition at 0.5 % (Cladosporum herbarum; 504 h, 0.5% content of the solution, read-out: inhibition zone (IZ)): 4 to 6 mm
zone of inhibition at 1 % (Cladosporum herbarum; 504 h, 1% content of the solution, read-out: inhibition zone (IZ)): 8 to 10 mm
zone of inhibition at 2 % (Cladosporum herbarum; 504 h, 2% content of the solution, read-out: inhibition zone (IZ)): 10 to 12 mm
zone of inhibition at 0.1 % strength (Proteus vulgaris; Proteus vulgaris, 24 h, 0.1% active substance in soaking solution): 0 mm
zone of inhibition at 0.3 % strength (Proteus vulgaris; Proteus vulgaris, 24 h, 0.3% active substance in soaking solution): 0 mm
zone of inhibition at 0.5 % strength (Proteus vulgaris; Proteus vulgaris, 24 h, 0.5% active substance in soaking solution): 0 mm
zone of inhibition at 0.5 % (Poria monticola; Poria monticola, 504 h, 0.5% content of the solution, read-out: inhibition zone (IZ)): 2 to 3 mm
zone of inhibition at 1 % (Poria monticola; Poria monticola, 504 h, 1% content of the solution, read-out: inhibition zone (IZ)): 6 to 8 mm
zone of inhibition at 2 % (Poria monticola; Poria monticola, 504 h, 2% content of the solution, read-out: inhibition zone (IZ)): 10 to 12 mm
zone of inhibition at 0.5 % (Paecilomyces varioti; Paecilomyces, 504 h, 0.5% content of the solution, read-out: inhibition zone (IZ)): 5 to 7 mm
zone of inhibition at 1 % (Paecilomyces varioti; Paecilomyces, 504 h, 1% content of the solution, read-out: inhibition zone (IZ)): 6 to 8 mm
zone of inhibition at 2 % (Paecilomyces varioti; Paecilomyces, 504 h, 2% content of the solution, read-out: inhibition zone (IZ)): 8 to 10 mm
zone of inhibition at 0.1 % strength (Escherichia coli; Escherichia coli, 24 h, 0.1% active substance in soaking solution): 0 mm
zone of inhibition at 0.3 % strength (Escherichia coli; Escherichia coli, 24 h, 0.3% active substance in soaking solution): 0 mm
zone of inhibition at 0.5 % strength (Escherichia coli; Escherichia coli, 24 h, 0.5% active substance in soaking solution): 0 mm
zone of inhibition at 0.5 % (Lentinus lepideus; Neolentinus lepideus, 504 h, 0.5% content of the solution, read-out: inhibition zone (IZ)): 4 to 6 mm
zone of inhibition at 1 % (Lentinus lepideus; Neolentinus lepideus, 504 h, 1% content of the solution, read-out: inhibition zone (IZ)): 10 to 12 mm
zone of inhibition at 2 % (Lentinus lepideus; Neolentinus lepideus, 504 h, 2% content of the solution, read-out: inhibition zone (IZ)): > 15 mm

CCC[CH2][Sn]([CH2]CCC)([CH2]CCC)[O]N(N=O)C1CCCCC1 [TBT-HDO]
EC50 in Orfes (Orfes): 0.035 mg/l of water
inhibition zone (Bacillus subtilis; [2]): 17 mm
inhibition zone (Bacillus subtilis; [3]): 22 mm
inhibition zone (Bacillus subtilis; [4]): 18 mm
EC50 in Daphnia (Daphnia): 0.020 mg/l of water
inhibition zone (Staphilococcus aureaus; [2]): 28 mm
inhibition zone (Staphilococcus aureaus; [3]): 32 mm
inhibition zone (Staphilococcus aureaus; [4]): 24 mm
inhibition zone (IZ) (Cladosporum herbarum; 0.5% content of the solution): 10-12 mm
inhibition zone (IZ) (Cladosporum herbarum; 1% content of the solution): > 15 mm
inhibition zone (IZ) (Cladosporum herbarum; 2% content of the solution): > 15 mm
Weight loss [1]: 12.8%
amount released into the environment, times higher than DBT-HDO ([1]; storage 6 days at 65° C., TBT-HDO vs DBT-HDO): six
LD50 oral (rats) (rats): 63 mg/kg of body wt.
inhibition zone (Proteus vulgaris; [2]): 6 mm
inhibition zone (Proteus vulgaris; [3]): 7 mm
inhibition zone (Proteus vulgaris; [4]): 7 mm
inhibition zone (IZ) (Poria monticola; 0.5% content of the solution): 7-9 mm
inhibition zone (IZ) (Poria monticola; 1% content of the solution): 15 mm
inhibition zone (IZ) (Poria monticola; 2% content of the solution): 15 mm
biocidal activity (bacteria and fungi): very good biocidal activity
inhibition zone (IZ) (Paecilomyces varioti; 0.5% content of the solution): 10-12 mm
inhibition zone (IZ) (Paecilomyces varioti; 1% content of the solution): > 15 mm
inhibition zone (IZ) (Paecilomyces varioti; 2% content of the solution): > 15 mm
inhibition zone (Escherichia coli; [2]): 0 mm
inhibition zone (Escherichia coli; [3]): 0 mm
inhibition zone (Escherichia coli; [4]): 0 mm
inhibition zone (IZ) (Lentinus lepideus; 0.5% content of the solution): > 15 mm
inhibition zone (IZ) (Lentinus lepideus; 1% content of the solution): > 15 mm
inhibition zone (IZ) (Lentinus lepideus; 2% content of the solution): > 15 mm
